The experiment deals with T1, Lanosterol synthase (Homo sapiens, UniProt P48449).
T1 sequence (P48449 whole entry): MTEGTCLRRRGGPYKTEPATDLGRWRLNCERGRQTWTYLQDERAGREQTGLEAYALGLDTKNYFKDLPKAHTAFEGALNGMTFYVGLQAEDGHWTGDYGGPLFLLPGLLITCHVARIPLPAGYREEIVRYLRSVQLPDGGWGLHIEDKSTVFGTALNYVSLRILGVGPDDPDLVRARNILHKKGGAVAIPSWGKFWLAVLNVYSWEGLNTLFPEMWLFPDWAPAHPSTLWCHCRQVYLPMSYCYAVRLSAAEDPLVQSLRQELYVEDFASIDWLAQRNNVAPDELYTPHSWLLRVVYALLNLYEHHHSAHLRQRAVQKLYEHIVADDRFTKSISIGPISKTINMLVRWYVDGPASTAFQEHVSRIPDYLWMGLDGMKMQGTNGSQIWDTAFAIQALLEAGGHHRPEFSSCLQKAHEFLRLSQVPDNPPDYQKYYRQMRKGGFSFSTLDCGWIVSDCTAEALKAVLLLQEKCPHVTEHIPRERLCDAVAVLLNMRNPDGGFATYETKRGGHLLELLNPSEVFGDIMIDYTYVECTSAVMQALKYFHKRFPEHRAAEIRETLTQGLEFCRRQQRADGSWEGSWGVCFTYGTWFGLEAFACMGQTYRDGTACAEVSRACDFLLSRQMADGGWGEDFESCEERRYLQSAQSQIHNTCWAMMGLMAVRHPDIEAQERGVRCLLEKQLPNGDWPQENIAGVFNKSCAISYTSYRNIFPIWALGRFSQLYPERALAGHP
Nature of the experiment: Inhibition of oxidosqualene cyclase.

A word on the IC50: it is the point on the concentration scale where inhibition reaches its midpoint. A low value points to inhibition by little substance. In the case of `C=CCN(C)CCCCCCOc1ccc2c(-c3ccc(Br)cc3)nn(C)c2c1`, 19 nM corresponded to half-maximal inhibition (IC50).

The values are drawn from BindingDB's records for doi:10.1021/jm0704651 (University of Turin, 2007).
